Results as given in ChEMBL document CHEMBL1159260, “Muricatocins A and B, two new bioactive monotetrahydrofuran Annonaceous acetogenins from the leaves of Annona muricata” (J Nat Prod, 1995).
Values after ≈ are worked out from the molar mass of the structure shown.

Tests used:
[1] = test system: HT-29; test: Cytotoxicity against human HT-29 cells after 7 days by MTT assay; assay type: functional; conditions: HT-29, 168 h, read-out: ED50 (the source's name)
[2] = Toxicity against brine shrimp; assay type: organism-based; conditions: artemia, in vivo
[3] = test system: MCF7; test: Cytotoxicity against human MCF7 cells after 7 days by MTT assay; assay type: functional; conditions: MCF7, 168 h, read-out: ED50 (the source's name)
[4] = test system: A549; test: Cytotoxicity against human A549 cells after 7 days by MTT assay; assay type: functional; conditions: A549, 168 h, read-out: ED50 (the source's name)

Row | Compound | EC50 [1] [µg/mL] | LC50 [2] [µg/mL] | EC50 [3] [µg/mL] | EC50 [4] [µg/mL]
1 | CCCCCCCCCCCC[C@H](O)[C@H]1CC[C@H]([C@H](O)CC[C@H]2C[C@@H](CCCCC[C@@H](O)CC3=C[C@H](C)OC3=O)OC(C)(C)O2)O1 | > 1 | 0.266 (≈ 0.407 µM) | 0.878 (≈ 1.34 µM) | 0.00718 (≈ 0.011 µM)
2 | CCCCCCCCCCCC[C@@H](O)[C@H]1CC[C@H]([C@H](O)CC[C@H]2C[C@@H](CCCCC[C@@H](O)CC3=C[C@H](C)OC3=O)OC(C)(C)O2)O1 | 0.508 (≈ 0.778 µM) | 0.206 (≈ 0.315 µM) | 0.165 (≈ 0.253 µM) | 0.00367 (≈ 0.00562 µM)
3 | COc1cccc2c1C(=O)c1c(O)c3c(c(O)c1C2=O)C[C@@](O)(C(=O)CO)C[C@@H]3O[C@H]1C[C@H](N)[C@H](O)[C@H](C)O1 [DOXORUBICIN] | – | – | 0.142 (≈ 0.261 µM) | 0.00356 (≈ 0.00655 µM)
4 | CCCCCCCCCCCC[C@@H](O)[C@H]1CC[C@H]([C@H](O)CC[C@H](O)C[C@H](O)CCCCC[C@@H](O)CC2=C[C@H](C)OC2=O)O1 [MURICATOCIN A] | 1.56 (≈ 2.55 µM) | 0.699 (≈ 1.14 µM) | 0.123 (≈ 0.201 µM) | 0.0755 (≈ 0.123 µM)
5 | CCCCCCCCCCCC[C@H](O)[C@H]1CC[C@H]([C@H](O)CC[C@H](O)C[C@H](O)CCCCC[C@@H](O)CC2=C[C@H](C)OC2=O)O1 [MURICATOCIN B] | 1.66 (≈ 2.71 µM) | 0.557 (≈ 0.909 µM) | 0.103 (≈ 0.168 µM) | 0.334 (≈ 0.545 µM)
